“Also recorded” adds a separate entry of the source.
Legend:
[1] = tested on: mice; assay: Effect of inhibitor pretreatment on LPA-, LPC- or miR-146a-induced scratching behavior; assay type: in vivo, mouse
[2] = tested on: extracellular release of miR-146a; assay: Extracellular release of miR-146a from cultured human keratinocytes (RT-qPCR); assay type: cell-based
Method: Primary human keratinocytes were cultured as previously described (Chen et al. J. Biol. Chem. 2016, 291, 10252-10262). In brief, surgically discarded foreskin samples, obtained from Duke Children's Hospital in accordance to institutionally approved IRB protocol, were incubated with Dispase (Gibco, Gaithersburg, MD, 4 U/mL) for 12-16 h at 4° C. followed by 0.05% trypsin (Gibco, Gaithersburg, MD) for 10-20 min at 37° C. Cells were maintained in keratinocyte serum-free media (Invitrogen, Waltham, MA) with 5% CO2 at 37° C. and used at passage 2-3.
Measurement of released vesicles and extracellular miR-146a from cultured keratinocytes or sera Medium for the cultured keratinocytes was replaced with serum-free medium 2 h before LPC stimulation. Fifteen minutes after LPC, the supernatant of the cells was harvested and subjected to two steps of centrifugation (i) 300 g for 5 min to eliminate remaining cells, (ii) 16,000 g for 30 min to eliminate cell debris and apoptotic bodies. Finally, cell-free supernatants were further purified using a Vesicular Isolation kit (Invitrogen, Waltham, MA) according to the manufacturer's instructions, with final product resuspended in ice-cold PBS. Total RNA extraction was then carried out using a Total RNA Isolation kit (Invitrogen, Waltham, MA). […]

Structure (SMILES) | effect on LPC-induced itch (TRPV4 inhibitors) ([1]; WT mice, i.p. pretreatment 20 mg/kg) | effect on LPA (18:1)-induced itch ([1]; WT mice, i.p. pretreatment 20 mg/kg, LPA 500 μg i.d.) | effect on LPC-induced itch (TRPV4 inhibitors) ([1]; WT mice, i.p. pretreatment 20 mg/kg, listed as HC067) | effect of TRPV4 inhibitors on LPC-induced release of miR-146a ([2]; inhibitor 10 μM) | effect on LPC-induced itch (MEK inhibitor) ([1]; i.d. pretreatment 20 μg/50 μL) | effect of MEK inhibitor on LPC-induced release of miR-146a ([2]; 10 μM)
Cc1c(C(=O)Nc2cccc(C(F)(F)F)c2)cc(-c2ccccc2)n1CCCN1CCOCC1 [HC067047] | a reduction | no significant reduction in scratching; also recorded: not significantly altered | significantly reduced | completely eliminated | – | –
N#CC(=C(/N)Sc1ccccc1N)/C(C#N)=C(\N)Sc1ccccc1N [U0126] | – | – | – | – | significant reduction; also recorded: significantly attenuated | eliminated; also recorded: abolished
